The structures appear in SMILES notation.

We go through 22 compounds from patent US20210179578A1, “OX1 ANTAGONISTS” (Heptares Therapeutics Limited, priority 2017, published 2021).

This experiment addresses T1, human OX2 receptor (Homo sapiens, UniProt O43614).
T1 sequence (O43614 1-444): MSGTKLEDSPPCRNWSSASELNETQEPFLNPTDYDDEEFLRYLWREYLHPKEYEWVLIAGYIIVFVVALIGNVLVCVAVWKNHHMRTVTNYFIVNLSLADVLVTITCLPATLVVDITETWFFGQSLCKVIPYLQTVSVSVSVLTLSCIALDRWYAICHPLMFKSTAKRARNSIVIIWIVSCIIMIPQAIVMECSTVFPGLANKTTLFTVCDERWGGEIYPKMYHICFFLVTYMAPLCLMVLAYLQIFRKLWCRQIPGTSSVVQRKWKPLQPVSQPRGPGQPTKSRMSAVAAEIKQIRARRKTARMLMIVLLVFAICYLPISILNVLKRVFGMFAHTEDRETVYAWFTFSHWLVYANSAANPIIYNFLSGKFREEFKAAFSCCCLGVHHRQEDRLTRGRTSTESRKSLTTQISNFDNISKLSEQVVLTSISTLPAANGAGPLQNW
The experiment can be described thus: IPone accumulation assay, CHO cells expressing OX2 (antagonism of orexin A). The note with it: CHO human OX2, orexin A EC80 challenge (40 nM), read-out: fpKb average OX2 (converted). In kind it is cell-based. As for the experimental part: Generation of CHO stable cell lines expressing the human OX1R and OX2R. Stable cell lines for the human OX1R and OX2R receptors were generated through the transfection of CHO cells using the transfection reagent Genejuice (Novagen number 70967) and cDNA coding for either the human OX1R or OX2R. Cells were cultured in Sigma Nutrient Mixture F-12 Ham media (catalog number N6658) supplemented with 10% heat-inactivated FBS. Forty-eight hours after transfection, cells were harvested and placed under geneticin selection by culturing in Sigma Nutrient Mixture F-12 Ham media supplemented with 10% heat-inactivated FBS and geneticin (ThermoFisher Catalog number: 10131035). Selection of the final stable clone for each receptor was made on the basis of receptor expression, assay signal to noise and robustness though increasing passage. Selected clones for the human OX1R and OX2R were then frozen down into liquid nitrogen using Cell Freezing Medium-DMSO (Sigma-Aldrich catalog number: C6164).
IPone accumulation assay. A CHO cell line stably expressing either human OX1 or OX2 receptor was used with the IPone HTRF assay kit (CisBio: Part #62IPAPEJ) to measure receptor activation. The assay was optimised to measure the ability (potency; fpKb) of antagonists to reduce agonist (orexin A)-induced inositol phosphate turnover. Briefly, cells were plated onto half area 96-well white walled plates at a density of 12,500 cells/well. Sixteen hours post-plating cell growth media was replaced with antagonist concentration-response curve diluted in stimulation buffer (supplied with the kit). Cells were incubated in a humidified incubator (37° C.) for 30 min before an EC80 challenge concentration (˜20 nM (OX1) and 40 nM (OX2)) of orexin A (Tocris catalogue number 1455). After 30 min stimulation in a humidified incubator (37° C.) the assay was terminated by the addition of detection mixture as per manufacturer's instructions. The concentration of compound which reduced orexin-A stimulated turnover of inositol phosphates by 50% (IC50) was calculated by fitting to a four parameter sigmoidal dose response curve. The IC50 values were converted to fpKB values using the orexin A pEC50 value estimated on each plate as well as the challenge concentration interpolated from the orexin A control curve.
For `COc1ncc(N2CCc3c(F)cccc3N(Cc3c(C)cc(Br)cc3F)C2=O)cc1S(C)(=O)=O` [Example 17, 1-(4-bromo-2-fluoro-6-methylbenzyl)-6-fluoro-3-[6-methoxy-5-(methylsulfonyl)pyridin-3-yl]-1,3,4,5-tetrahydro-2H-1,3-benzodiazepin-2-one], the Kb is more than 2510 nM.

`COCc1cc(F)c(CN2C(=O)N(c3cnc(OC)c(C(C)(F)F)c3)CCc3c(F)cccc32)c(F)c1` [Example 7, 3-[5-(1,1-difluoroethyl)-6-methoxypyridin-3-yl]-1-[2,6-difluoro-4-(methoxymethyl)benzyl]-6-fluoro-1,3,4,5-tetrahydro-2H-1,3-benzodiazepin-2-one]: the Kb was more than 3980 nM.

As for `COc1ncc(N2CCc3c(F)cccc3N(Cc3c(F)cc(Br)cc3F)C2=O)cc1S(C)(=O)=O` [Example 14, 1-(4-bromo-2,6-difluorobenzyl)-6-fluoro-3-[6-methoxy-5-(methylsulfonyl)pyridin-3-yl]-1,3,4,5-tetrahydro-2H-1,3-benzodiazepin-2-one], the Kb is more than 794 nM. Consider `CCCc1cc(F)c(CN2C(=O)N(c3ccc(C)c(S(C)(=O)=O)c3)CCc3c(F)cccc32)c(F)c1` [Example 28, 1-(2,6-difluoro-4-propylbenzyl)-6-fluoro-3-[4-methyl-3-(methylsulfonyl)phenyl]-1,3,4,5-tetrahydro-2H-1,3-benzodiazepin-2-one], for which the Kb was more than 3980 nM. For the compound `COCc1cc(F)c(CN2C(=O)N(c3cnc(C)c(C(C)(F)F)c3)CCc3c(F)cccc32)c(F)c1` [Example 33, 3-[5-(1,1-difluoroethyl)-6-methylpyridin-3-yl]-1-[2,6-difluoro-4-(methoxymethyl)benzyl]-6-fluoro-1,3,4,5-tetrahydro-2H-1,3-benzodiazepin-2-one], the Kb was 1000 nM.

Turning to `Cc1ncc(N2CCc3c(F)cccc3N(Cc3c(F)cc(Br)cc3F)C2=O)cc1C(C)(F)F` [Example 32, 1-(4-bromo-2,6-difluorobenzyl)-3-[5-(1,1-difluoroethyl)-6-methylpyridin-3-yl]-6-fluoro-1,3,4,5-tetrahydro-2H-1,3-benzodiazepin-2-one], the Kb is more than 631 nM. As to `COc1ncc(N2CCc3c(F)cccc3N(Cc3c(F)cc(Br)cc3F)C2=O)cc1C(C)(F)F` [Example 3, 1-(4-bromo-2,6-difluorobenzyl)-3-[5-(1,1-difluoroethyl)-6-methoxypyridin-3-yl]-6-fluoro-1,3,4,5-tetrahydro-2H-1,3-benzodiazepin-2-one], the Kb is more than 794 nM. For `COc1cc(F)c(CN2C(=O)N(c3cnc(OC)c(C(C)(F)F)c3)CCc3c(F)cccc32)c(F)c1` [Example 8, 3-[5-(1,1-difluoroethyl)-6-methoxypyridin-3-yl]-1-(2,6-difluoro-4-methoxybenzyl)-6-fluoro-1,3,4,5-tetrahydro-2H-1,3-benzodiazepin-2-one], the Kb was more than 316 nM. In the case of `COc1ncc(N2CCc3c(F)cccc3N(Cc3c(F)cc(Cl)cc3F)C2=O)cc1C(C)(F)F` [Example 9, 1-(4-chloro-2,6-difluorobenzyl)-3-[5-(1,1-difluoroethyl)-6-methoxypyridin-3-yl]-6-fluoro-1,3,4,5-tetrahydro-2H-1,3-benzodiazepin-2-one], the Kb was more than 3160 nM. As for `Cc1cc(C)c(S(C)(=O)=O)cc1N1CCc2ccccc2N(Cc2c(F)cc(OC(C)C)cc2F)C1=O` [Example 30, 1-[2,6-difluoro-4-(propan-2-yloxy)benzyl]-3-[2,4-dimethyl-5-(methylsulfonyl)phenyl]-1,3,4,5-tetrahydro-2H-1,3-benzodiazepin-2-one], the figure is 794 nM; as for `COc1cc(F)c(CN2C(=O)N(c3cc(S(C)(=O)=O)c(OC)nc3OC)CCc3c(F)cccc32)c(F)c1` [Example 25, 1-(2,6-difluoro-4-methoxybenzyl)-3-[2,6-dimethoxy-5-(methylsulfonyl)pyridin-3-yl]-6-fluoro-1,3,4,5-tetrahydro-2H-1,3-benzodiazepin-2-one], more than 3980 nM. With `[2H]C([2H])([2H])OCc1cc(F)c(CN2C(=O)N(c3cnc(OC)c(C(C)(F)F)c3)CCc3c(F)cccc32)c(F)c1` [Example 5, 3-[5-(1,1-difluoroethyl)-6-methoxypyridin-3-yl]-1-(2,6-difluoro-4-{[(^2H3)methyloxy]methyl}benzyl)-6-fluoro-1,3,4,5-tetrahydro-2H-1,3-benzodiazepin-2-one] the figure was more than 2000 nM; with `COc1ncc(C2CCc3c(F)cccc3N(Cc3c(F)cc(Cl)cc3F)C2=O)cc1S(C)(=O)=O` (single isomer, unassigned) [Example 22, 1-(4-chloro-2,6-difluorobenzyl)-6-fluoro-3-[6-methoxy-5-(methylsulfonyl)pyridin-3-yl]-1,3,4,5-tetrahydro-2H-1-benzazepin-2-one], more than 1000 nM.

In the case of `[2H]C([2H])([2H])Oc1ncc(N2CCc3c(F)cccc3N(Cc3c(F)cc(Br)cc3F)C2=O)cc1C(C)(F)F` [Example 2, 1-(4-bromo-2,6-difluorobenzyl)-3-{5-(1,1-difluoroethyl)-6-[(^2H3)methyloxy]pyridin-3-yl}-6-fluoro-1,3,4,5-tetrahydro-2H-1,3-benzodiazepin-2-one], the Kb was more than 3980 nM. As for `Cc1ccc(N2CCc3c(F)cccc3N(Cc3c(F)cc(Br)cc3F)C2=O)cc1C(C)(F)F` [Example 1, 1-(4-bromo-2,6-difluorobenzyl)-3-[3-(1,1-difluoroethyl)-4-methylphenyl]-6-fluoro-1,3,4,5-tetrahydro-2H-1,3-benzodiazepin-2-one], the figure is more than 3160 nM; as for `COCc1cc(F)c(CN2C(=O)N(c3cc(C(C)(F)F)c(OC)nc3OC)CCc3c(F)cccc32)c(F)c1` [Example 24, 3-[5-(1,1-difluoroethyl)-2,6-dimethoxypyridin-3-yl]-1-[2,6-difluoro-4-(methoxymethyl)benzyl]-6-fluoro-1,3,4,5-tetrahydro-2H-1,3-benzodiazepin-2-one], more than 3160 nM; as for `[2H]C([2H])([2H])Oc1cc(F)c(CN2C(=O)N(c3cnc(OC)c(C(C)(F)F)c3)CCc3c(F)cccc32)c(F)c1` [Example 6, 3-[5-(1,1-difluoroethyl)-6-methoxypyridin-3-yl]-1-{2,6-difluoro-4-[(^2H3)methyloxy]benzyl}-6-fluoro-1,3,4,5-tetrahydro-2H-1,3-benzodiazepin-2-one], 398 nM. In the case of `COc1ncc(N2CCc3c(F)cccc3N(Cc3c(C)cc(F)cc3F)C2=O)cc1S(C)(=O)=O` [Example 18, 1-(2,4-difluoro-6-methylbenzyl)-6-fluoro-3-[6-methoxy-5-(methylsulfonyl)pyridin-3-yl]-1,3,4,5-tetrahydro-2H-1,3-benzodiazepin-2-one], the Kb is more than 3160 nM. As for `COc1ncc(N2CCc3c(F)cccc3N(Cc3ccc(Br)cc3F)C2=O)cc1C(C)(F)F` [Example 10, 1-(4-bromo-2-fluorobenzyl)-3-[5-(1,1-difluoroethyl)-6-methoxypyridin-3-yl]-6-fluoro-1,3,4,5-tetrahydro-2H-1,3-benzodiazepin-2-one], the figure is more than 2510 nM; as for `Cc1ncc(N2CCc3c(F)cccc3N(Cc3c(F)cc(Br)cc3F)C2=O)cc1OC(F)F` [Example 37, 1-(4-bromo-2,6-difluorobenzyl)-3-[5-(difluoromethoxy)-6-methylpyridin-3-yl]-6-fluoro-1,3,4,5-tetrahydro-2H-1,3-benzodiazepin-2-one], more than 3980 nM. Take `CSc1cc(N2CCc3c(F)cccc3N(Cc3c(F)cc(Br)cc3F)C2=O)ccc1C` [Example 26, 1-(4-bromo-2,6-difluorobenzyl)-6-fluoro-3-[4-methyl-3-(methylsulfanyl)phenyl]-1,3,4,5-tetrahydro-2H-1,3-benzodiazepin-2-one]: the Kb is more than 794 nM. As for `COc1ncc(C2CCc3c(F)cccc3N(Cc3c(F)cc(Br)cc3F)C2=O)cc1C(C)(F)F` (single isomer, unassigned) [Example 12, 1-(4-bromo-2,6-difluorobenzyl)-3-[5-(1,1-difluoroethyl)-6-methoxypyridin-3-yl]-6-fluoro-1,3,4,5-tetrahydro-2H-1-benzazepin-2-one], the figure is more than 1000 nM.
